In patent US11555012B2 (Nimbus Artemis, Inc., priority 2018, dated 2023):

Assays:
ACL [1] = molecular target: T1, ACL (Homo sapiens (Human), UniProt P53396); assay: ADP-Glo Assay
Target sequence in this assay (P53396 other isoform, or with tags, fused parts or gaps isoform P53396-2): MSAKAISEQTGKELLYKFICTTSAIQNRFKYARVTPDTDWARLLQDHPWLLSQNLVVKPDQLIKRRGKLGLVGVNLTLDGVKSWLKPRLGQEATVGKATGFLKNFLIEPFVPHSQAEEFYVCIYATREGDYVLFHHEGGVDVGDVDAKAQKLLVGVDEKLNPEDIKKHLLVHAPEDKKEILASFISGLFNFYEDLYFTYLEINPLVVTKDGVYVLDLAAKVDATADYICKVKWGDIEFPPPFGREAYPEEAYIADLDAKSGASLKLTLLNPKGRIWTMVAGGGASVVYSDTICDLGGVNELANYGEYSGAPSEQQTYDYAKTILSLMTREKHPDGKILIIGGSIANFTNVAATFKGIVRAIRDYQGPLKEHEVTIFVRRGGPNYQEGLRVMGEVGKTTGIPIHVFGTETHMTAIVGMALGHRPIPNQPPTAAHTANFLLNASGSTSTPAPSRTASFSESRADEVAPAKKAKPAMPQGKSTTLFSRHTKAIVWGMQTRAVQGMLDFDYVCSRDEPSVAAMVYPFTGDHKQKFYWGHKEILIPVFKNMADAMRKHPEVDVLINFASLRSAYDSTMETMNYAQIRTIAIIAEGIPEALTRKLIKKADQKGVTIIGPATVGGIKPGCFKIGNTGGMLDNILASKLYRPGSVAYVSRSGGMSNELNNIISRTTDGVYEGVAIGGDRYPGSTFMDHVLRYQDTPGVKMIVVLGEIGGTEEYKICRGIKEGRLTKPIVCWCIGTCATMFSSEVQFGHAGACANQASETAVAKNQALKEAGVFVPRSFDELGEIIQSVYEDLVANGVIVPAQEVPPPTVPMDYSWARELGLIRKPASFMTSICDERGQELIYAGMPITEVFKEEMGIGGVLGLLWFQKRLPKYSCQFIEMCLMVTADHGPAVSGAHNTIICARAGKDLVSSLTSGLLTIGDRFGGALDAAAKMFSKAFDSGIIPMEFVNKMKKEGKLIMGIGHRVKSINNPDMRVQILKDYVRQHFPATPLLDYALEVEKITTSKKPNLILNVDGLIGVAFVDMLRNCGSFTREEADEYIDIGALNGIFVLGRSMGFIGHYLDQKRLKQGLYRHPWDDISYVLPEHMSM

ACL [2] = molecular target: T1, ACL; assay: ACLY-MDH Coupled Assay
Target sequence in this assay (P53396 whole entry, species assumed): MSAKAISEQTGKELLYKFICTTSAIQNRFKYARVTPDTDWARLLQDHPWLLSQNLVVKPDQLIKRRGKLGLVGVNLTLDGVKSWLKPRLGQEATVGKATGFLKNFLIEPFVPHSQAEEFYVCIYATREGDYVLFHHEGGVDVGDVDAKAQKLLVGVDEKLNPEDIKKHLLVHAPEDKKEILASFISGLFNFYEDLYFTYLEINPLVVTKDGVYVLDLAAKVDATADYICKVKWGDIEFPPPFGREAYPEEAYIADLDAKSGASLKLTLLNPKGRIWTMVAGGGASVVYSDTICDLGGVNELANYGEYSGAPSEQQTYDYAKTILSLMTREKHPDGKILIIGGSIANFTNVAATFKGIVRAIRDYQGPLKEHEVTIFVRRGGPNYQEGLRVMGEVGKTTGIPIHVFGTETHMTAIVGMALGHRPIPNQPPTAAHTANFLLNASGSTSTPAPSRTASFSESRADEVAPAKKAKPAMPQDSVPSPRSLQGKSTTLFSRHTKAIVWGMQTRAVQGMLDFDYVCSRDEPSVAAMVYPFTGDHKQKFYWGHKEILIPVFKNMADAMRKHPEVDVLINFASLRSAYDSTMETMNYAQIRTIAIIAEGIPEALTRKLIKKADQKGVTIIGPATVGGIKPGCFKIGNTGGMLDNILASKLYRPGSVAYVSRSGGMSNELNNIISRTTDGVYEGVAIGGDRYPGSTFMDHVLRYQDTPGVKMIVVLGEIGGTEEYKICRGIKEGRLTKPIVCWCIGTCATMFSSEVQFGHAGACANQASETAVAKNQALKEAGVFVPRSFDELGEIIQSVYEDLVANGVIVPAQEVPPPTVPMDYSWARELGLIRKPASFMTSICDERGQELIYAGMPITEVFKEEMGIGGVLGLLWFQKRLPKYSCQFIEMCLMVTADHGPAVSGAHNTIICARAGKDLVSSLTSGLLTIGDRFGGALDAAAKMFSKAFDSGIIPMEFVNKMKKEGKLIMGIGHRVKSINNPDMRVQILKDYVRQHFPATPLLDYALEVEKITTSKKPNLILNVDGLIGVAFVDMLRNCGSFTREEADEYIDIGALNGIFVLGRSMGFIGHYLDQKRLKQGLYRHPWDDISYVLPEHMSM
Experimental: Compounds of the present invention were evaluated in an ACLY Coupled Assay.
The assay protocol for the Coupled Assay (below) was followed:
b) Add 1 μL cpds to 96 assay plate, Test cpd conc: 100/30/10 μM top dose, 3 folds dilution, 10+0+control (control: buffer without ACL+DMSO) points, 1000 rpm for 1 min, incubation at 25° C. for 60 min

[3] = read-out: ACL-ADP-Glo (IC50), 3 nM ACL, 15 μM ATP, 3 μM CoA, 300 μM Citrate

Structure (SMILES) | IC50 (ACL [1]) | IC50 (ACL [2]) | IC50 (ACL [1]; [3])
COc1ccc(-c2ccccc2)cc1NS(=O)(=O)c1cc(C(=O)O)cc(Cl)c1O [I-2, 3-chloro-4-hydroxy-5-(N-(4-methoxy-[1,1′-biphenyl]-3-yl)sulfamoyl)benzoic Acid] | 0.5 to 20 µM | 0.5 to 30 µM | –
COc1ccc(-c2cccnc2)cc1NS(=O)(=O)c1cc(Cl)cc(Cl)c1O [I-7, 3,5-dichloro-2-hydroxy-N-(2-methoxy-5-(pyridin-3-yl)phenyl)benzenesulfonamide] | 0.5 to 20 µM | 0.5 to 30 µM | –
COc1cc(Br)ccc1NS(=O)(=O)c1cc(Cl)cc(Cl)c1O [I-11, N-(4-bromo-2-methoxyphenyl)-3,5-dichloro-2-hydroxybenzenesulfonamide] | 0.5 to 20 µM | 0.5 to 30 µM | –
O=C(O)c1ccc(F)c(NS(=O)(=O)c2cc(Cl)cc(Cl)c2O)c1 [I-12, 3-((3,5-dichloro-2-hydroxyphenyl)sulfonamido)-4-fluorobenzoic Acid] | 0.5 to 20 µM | 0.5 to 30 µM | –
COc1ccc(-c2ccccc2)cc1NS(=O)(=O)c1cccc(-c2nn[nH]n2)c1 [I-19, N-(4-methoxy-[1,1′-biphenyl]-3-yl)-3-(2H-tetrazol-5-yl)benzenesulfonamide] | 0.5 to 20 µM | 0.5 to 30 µM | –
O=S(=O)(Nc1cc(-c2nn[nH]n2)ccc1F)c1cc(Cl)cc(Cl)c1O [I-24, 3,5-dichloro-N-[2-fluoro-5-(2H-1,2,3,4-tetrazol-5-yl)phenyl]-2-hydroxybenzene-1-sulfonamide] | 0.5 to 20 µM | 0.5 to 30 µM | –
O=S(=O)(Nc1cc(-c2ccccc2)ccc1O)c1cc(Cl)cc(Cl)c1O [I-28, 3,5-dichloro-2-hydroxy-N-(2-hydroxy-5-phenylphenyl) benzene-1-sulfonamide] | 0.5 to 20 µM | 0.05 to 0.5 µM | –
N#Cc1cc(Cl)cc(S(=O)(=O)Nc2cc(-c3ccccc3)ccc2F)c1O [I-29, 5-chloro-3-cyano-N-(2-fluoro-5-phenylphenyl)-2-hydroxybenzene-1-sulfonamide] | 0.5 to 20 µM | 0.5 to 30 µM | –
O=S(=O)(Nc1cc(-c2ccccc2)ccn1)c1cc(Cl)cc(Br)c1O [I-32] | 0.5 to 20 µM | 0.5 to 30 µM | –
O=C(O)COc1c(Br)cc(Cl)cc1S(=O)(=O)Nc1cc(-c2ccccc2)ccc1F [I-46, 2-(2-bromo-4-chloro-6-(N-(4-fluoro-[1,1′-biphenyl]-3-yl)sulfamoyl)phenoxy)acetic Acid] | 0.5 to 20 µM | 0.5 to 30 µM | –
COC(=O)c1cc(Cl)c(OC)c(S(=O)(=O)Nc2cc(-c3ccccc3)ccc2F)c1 [I-49, Methyl 3-chloro-5-(N-(4-fluoro-[1,1′-biphenyl]-3-yl)sulfamoyl)-4-methoxybenzoate] | 0.5 to 20 µM | 0.5 to 30 µM | –
CCC(=O)Oc1c(Cl)cc(Cl)cc1S(=O)(=O)Nc1cc(-c2ccccc2)ccc1F [I-50, 2,4-dichloro-6-(N-(4-fluoro-[1,1′-biphenyl]-3-yl)sulfamoyl)phenyl propionate] | 0.5 to 20 µM | 0.5 to 30 µM | –
Nc1ccc(-c2ccccc2)cc1NS(=O)(=O)c1cc(Cl)cc(Br)c1O [I-53, N-(2-amino-5-phenylphenyl)-3-bromo-5-chloro-2-hydroxybenzene-1-sulfonamide] | 0.5 to 20 µM | 0.5 to 30 µM | –
COc1ccc(-c2ccccc2)cc1NS(=O)(=O)c1cc(C(N)=O)cc(Cl)c1O [I-55, 3-chloro-4-hydroxy-5-[(2-methoxy-5-phenylphenyl)sulfamoyl]benzamide] | 0.05 to 0.5 µM | 0.5 to 30 µM | –
COc1ccc(-c2ccccc2)cc1NS(=O)(=O)c1cc(C(=O)N(C)C)cc(Cl)c1O [I-56, 3-chloro-4-hydroxy-5-[(2-methoxy-5-phenylphenyl)sulfamoyl]-N,N-dimethylbenzamide] | 0.05 to 0.5 µM | 0.05 to 0.5 µM | –
COc1ccc(-c2ccccc2)cc1NS(=O)(=O)c1cc(C#N)cc(Cl)c1O [I-58, 3-chloro-5-cyano-2-hydroxy-N-(2-methoxy-5-phenylphenyl)benzene-1-sulfonamide] | 0.05 to 0.5 µM | 0.05 to 0.5 µM | –
COc1c(Cl)cc(C(=O)O)cc1S(=O)(=O)Nc1cc(-c2ccccc2)c(F)cc1F [I-62, 3-chloro-5-[(2,4-difluoro-5-phenylphenyl)sulfamoyl]-4-methoxybenzoic Acid] | 0.5 to 20 µM | 0.5 to 30 µM | –
COc1ccc(-c2ccccc2)cc1NS(=O)(=O)c1cc(CC(=O)O)cc(Cl)c1OC [I-439, 2-[3-chloro-4-methoxy-5-[(2-methoxy-5-phenylphenyl)sulfamoyl]phenyl]acetic Acid] | > 20 µM | – | –
CCC(=O)Nc1c(Cl)cc(Cl)cc1S(=O)(=O)Nc1cc(-c2ccccc2)ccc1OC [I-440, N-[2,4-dichloro-6-[(2-methoxy-5-phenylphenyl)sulfamoyl]phenyl]propanamide] | > 20 µM | – | –
COc1ccccc1S(=O)(=O)Nc1cc(-c2ccccc2)ccc1F [I-441, N-[4-fluoro-[1,1-biphenyl]-3-yl]-2-methoxybenzene-1-sulfonamide] | > 20 µM | – | –
COc1ccc(-c2ccccc2)cc1NS(=O)(=O)c1cc(-c2nn[nH]n2)ccc1OC [I-442, 2-methoxy-N-(2-methoxy-5-phenylphenyl)-5-(2H-1,2,3,4-tetrazol-5-yl)benzene-1-sulfonamide] | > 20 µM | – | –
Cn1ccc(Oc2c(Cl)cc(Cl)cc2S(=O)(=O)Nc2cc(-c3ccccc3)ccc2F)n1 [I-443, 3,5-dichloro-N-(4-fluoro-[1,1′-biphenyl]-3-yl)-2-((1-methyl-1H-pyrazol-3-yl)oxy)benzenesulfonamide] | > 20 µM | – | –

Structure (SMILES) | IC50 (ACL [1]) | IC50 (ACL [2]) | IC50 (ACL [1]; [3])
O=C(O)c1cc(Cl)c(O)c(S(=O)(=O)Nc2ccc(F)c(-c3ccccc3)c2F)c1 [I-444, 3-chloro-5-[(2,4-difluoro-3-phenylphenyl)sulfamoyl]-4-hydroxybenzoic acid] | > 20 µM | – | –
O=C(O)c1ccc(-c2ccccc2)cc1NS(=O)(=O)c1cn[nH]c1 [I-445] | > 20 µM | – | –
CCOC(=O)c1cc(Cl)c(O)c(S(=O)(=O)Nc2cc(-c3cc4ccccc4s3)c(F)cc2OC)c1 [I-506, ethyl 3-(N-(5-(benzo[b]thiophen-2-yl)-4-fluoro-2-methoxyphenyl)sulfamoyl)-5-chloro-4-hydroxybenzoate] | – | – | < 0.05 µM
O=C(O)c1cc(Cl)c(O)c(S(=O)(=O)Nc2cc(-c3cc4ccccc4s3)c(F)cc2F)c1 [I-507, 3-(N-(5-(benzo[b]thiophen-2-yl)-2,4-difluorophenyl)sulfamoyl)-5-chloro-4-hydroxybenzoic Acid] | 0.05 to 0.5 µM | – | –
CC#Cc1cc(Cl)ccc1N(C)S(=O)(=O)c1cc(Br)cc(Cl)c1O [I-516, 5-bromo-3-chloro-N-(4-chloro-2-(prop-1-yn-1-yl)phenyl)-2-hydroxy-N-methylbenzenesulfonamide] | 0.5 to 20 µM | – | –
COc1cc(F)c(-c2cc3ccccc3s2)cc1NS(=O)(=O)c1cc(C(=O)O)cc(F)c1O [I-517, 3-(N-(5-(benzo[b]thiophen-2-yl)-4-fluoro-2-methoxyphenyl)sulfamoyl)-5-fluoro-4-hydroxybenzoic Acid] | 0.5 to 20 µM | – | –
CN(C)C(=O)c1cc(Cl)c(O)c(S(=O)(=O)Nc2cc(-c3ccccc3)ccc2C(=O)O)c1 [I-518, 3-((3-chloro-5-(dimethylcarbamoyl)-2-hydroxyphenyl)sulfonamido)-[1,1′-biphenyl]-4-carboxylic Acid] | – | – | 0.5 to 20 µM
O=C(Nc1cc(Br)ccc1C(=O)O)c1cc(Cl)cc(Cl)c1 [I-519, 4-bromo-2-(3,5-dichlorobenzamido)benzoic Acid] | 0.5 to 20 µM | – | –
O=C(O)c1ccccc1NS(=O)(=O)c1cc(Cl)cc(Cl)c1 [I-522, 2-((3,5-dichlorophenyl)sulfonamido)benzoic acid] | > 20 µM | – | –
CCS(=O)(=O)Nc1ccc(S(=O)(=O)Nc2cc(-c3ccccc3)ccc2F)c(OC)c1 [I-523, 4-(ethylsulfonamido)-N-(4-fluoro-[1,1′-biphenyl]-3-yl)-2-methoxybenzenesulfonamide] | > 20 µM | – | –
CC(C)S(=O)(=O)Nc1ccc(S(=O)(=O)Nc2cc(-c3ccccc3)ccc2F)cc1F [I-524, 3-fluoro-N-(4-fluoro-[1,1′-biphenyl]-3-yl)-4-((1-methylethyl)sulfonamido)benzenesulfonamide] | > 20 µM | – | –
COC(=O)c1ccnc(NS(=O)(=O)c2cc(Cl)cc(Cl)c2O)c1 [I-525, methyl 2-((3,5-dichloro-2-hydroxyphenyl)sulfonamido)isonicotinate] | > 20 µM | – | –
Cc1ccc(S(=O)(=O)Nc2cc(-c3ccccc3)ccc2F)c(C)c1OCC(=O)O [I-526, 2-(3-(N-(4-fluoro-[1,1′-biphenyl]-3-yl)sulfamoyl)-2,6-dimethylphenoxy)acetic acid] | > 20 µM | – | –
Cc1ccc(C(=O)O)c(NS(=O)(=O)c2cc(Cl)cc(Cl)c2)n1 [I-527, 2-((3,5-dichlorophenyl)sulfonamido)-6-methylnicotinic acid] | > 20 µM | – | –
COc1ccc(-c2ccccc2)cc1NS(=O)(=O)c1ccccc1O [I-528, 2-hydroxy-N-(4-methoxy-[1,1′-biphenyl]-3-yl)benzenesulfonamide] | > 20 µM | – | –
COc1ccc(C(=O)O)cc1S(=O)(=O)Nc1cc(-c2ccccc2)c(F)cc1F [I-529, 3-(N-(4,6-difluoro-[1,1′-biphenyl]-3-yl)sulfamoyl)-4-methoxybenzoic acid] | > 20 µM | – | –
COC(=O)Cc1ccc(-c2ccccc2)cc1NS(=O)(=O)c1cc(Cl)cc(Cl)c1 [I-530, methyl 2-(3-((3,5-dichlorophenyl)sulfonamido)-[1,1′-biphenyl]-4-yl)acetate] | > 20 µM | – | –
O=C(O)c1cc(NC(=O)c2cccc3ncccc23)ccc1Cl [I-531, 2-chloro-5-(quinoline-5-carboxamido)benzoic acid] | > 20 µM | – | –
Cc1cccc(C(=O)O)c1NS(=O)(=O)c1cc(Cl)cc(Cl)c1 [I-533, 2-((3,5-dichlorophenyl)sulfonamido)-3-methylbenzoic acid] | > 20 µM | – | –
O=C(O)c1cc(NC(=O)c2cc(F)cc3nc[nH]c23)ccc1Cl [I-535, 2-chloro-5-(5-fluoro-1H-benzo[d]imidazole-7-carboxamido)benzoic acid] | > 20 µM | – | –
O=C(O)c1cc(Cl)c(O)c(S(=O)(=O)Nc2cc(-c3ccccc3)ccn2)c1 [I-536] | > 20 µM | – | –
